US4604380A, “C-23-substituted mycaminosyltylonolide compounds, pharmaceutical compositions and methods of use” (Eli Lilly and Company, priority 1985, dated 1986)
≈ marks a conversion by molar mass, not a printed value. Where “and” joins values, the source holds several entries; their conditions need not be identical. Equal values may be shown once. Read-outs that look alike come from different tables or passages of the source.

Tests used:
Streptococcus pyogenes = test: ED50 vs Streptococcus pyogenes experimental infection in mice (Table VI); assay type: in vivo; details: two doses, several values = results from more than one test
Procedure: (§1) Certain formula 1a compounds have also shown in vivo antimicrobial activity against experimental bacterial infections. When two doses of test compound were administered to mice in experimental infections, the activity observed was measured as an ED50 value [effective dose in mg/kg to protect 50% of the test animals: see Warren Wick, et al., J. Bacteriol. 81, 233-235 (1961)].

Staphylococcus aureus = test: ED50 vs. Staphylococcus aureus experimental infection in mice (Table V); assay type: in vivo; details: two doses, dose protecting 50% of animals
Procedure: as §1

[1] = system: Streptococcous pneumoniae; test: ED50 vs. Streptococcous pneumoniae experimental infection in mice (Table VII); assay type: in vivo; details: two doses; for ED50: Mus musculus
Procedure: as §1

[2] = system: Streptococcus pneumoniae Park I; test: microbe, parasite or virus in culture; assay type: cell-based; details: read-out: MIC
Procedure: (§2) The MIC's s in Table III were determined by standard agar-dilution assays. The MIC's in Table IV were obtained using a conventional broth-dilution microtiter test.

[3] = system: Staphylococcus epidermidis EPI1; test: MIC, standard agar-dilution assay (Table III); assay type: cell-based
Procedure: as §2

[4] = system: Staphylococcus aureus S13E; test: MIC, standard agar-dilution assay (Table III); assay type: cell-based
Procedure: as §2

[5] = system: Staphylococcus aureus X1.1; test: MIC, standard agar-dilution assay (Table III); assay type: cell-based
Procedure: as §2

[6] = system: Streptococcus Group D 2041; test: MIC, standard agar-dilution assay (Table III); assay type: cell-based; details: GROUPD2041
Procedure: as §2

[7] = system: Staphylococcus aureus V41; test: MIC, standard agar-dilution assay (Table III); assay type: cell-based; details: Staphylococcus aureus V41, penicillin-resistant strain
Procedure: as §2

[8] = system: Streptococcus pyogenes C203; test: MIC, standard agar-dilution assay (Table III); assay type: cell-based
Procedure: as §2

[9] = system: Streptococcus Group D X66; test: MIC, standard agar-dilution assay (Table III); assay type: cell-based
Procedure: as §2

[10] = system: Haemophilus influenzae 76; test: MIC, standard agar-dilution assay (Table III); assay type: cell-based; details: agar dilution; Haemophilus influenzae 76, ampicillin-resistant strain; read-out: MIC
Procedure: as §2

[11] = system: Staphylococcus aureus X400; test: MIC, standard agar-dilution assay (Table III); assay type: cell-based
Procedure: as §2

[12] = system: Haemophilus influenzae C.L.; test: MIC, standard agar-dilution assay (Table III); assay type: cell-based
Procedure: as §2

[13] = system: Staphylococcus epidermidis 222; test: MIC, standard agar-dilution assay (Table III); assay type: cell-based
Procedure: as §2

[14] = system: Staphylococcus aureus 19C; test: MIC, conventional broth-dilution microtiter test (Table IV); assay type: cell-based; details: broth-dilution microtiter; Staphylococcus aureus 19C; read-out: MIC
Procedure: as §2

[15] = system: Pasteurella multocida 68C; test: as above; assay type: cell-based; details: broth-dilution microtiter; Pasteurella multocida 68C; read-out: MIC
Procedure: as §2

[16] = system: Pasteurella multocida 17E; test: as above; assay type: cell-based; details: broth-dilution microtiter; Pasteurella multocida 17E, bovine isolate; read-out: MIC
Procedure: as §2

[17] = system: Mycoplasma gallisepticum 36H; test: as above; assay type: cell-based; details: Mycoplasmoides gallisepticum; broth-dilution microtiter; Mycoplasma gallisepticum 36H; read-out: MIC
Procedure: as §2

[18] = system: Bordetella bronchisepticum 95B; test: as above; assay type: cell-based
Procedure: as §2

Mycoplasma hyorhinis 29E = test: as above; assay type: cell-based; details: Mycoplasma, 29E
Procedure: as §2

[19] = system: Mycoplasma gallisepticum 15E; test: as above; assay type: cell-based; details: Mycoplasmoides gallisepticum; broth-dilution microtiter; Mycoplasma gallisepticum 15E; read-out: MIC
Procedure: as §2

[20] = system: Mycoplasma hyopneumoniae S5972; test: as above; assay type: cell-based; details: Mesomycoplasma hyopneumoniae; broth-dilution microtiter; Mycoplasma hyopneumoniae S5972; read-out: MIC
Procedure: as §2

[21] = system: Pasteurella multocida 22A; test: as above; assay type: cell-based; details: broth-dilution microtiter; Pasteurella multocida 22A; read-out: MIC
Procedure: as §2

Mycoplasma synoviae 40A = test: as above; assay type: cell-based; details: Mycoplasmopsis synoviae, 40A
Procedure: as §2

[22] = system: Pasteurella hemolytica 41D; test: as above; assay type: cell-based; details: broth-dilution microtiter; Pasteurella hemolytica 41D; read-out: MIC
Procedure: as §2

Streptococcus sp. 19F = test: as above; assay type: cell-based
Procedure: as §2

[23] = system: Pasteurella multocida 40G; test: as above; assay type: cell-based; details: broth-dilution microtiter; Pasteurella multocida 40G; read-out: MIC
Procedure: as §2

[24] = system: Pasteurella hemolytica 22C; test: as above; assay type: cell-based; details: broth-dilution microtiter; Pasteurella hemolytica 22C; read-out: MIC
Procedure: as §2

[25] = system: Pasteurella multocida 60A; test: as above; assay type: cell-based; details: broth-dilution microtiter; Pasteurella multocida 60A, avian isolate; read-out: MIC
Procedure: as §2

[26] = system: Mycoplasma gallisepticum 29C; test: as above; assay type: cell-based; details: Mycoplasmoides gallisepticum; broth-dilution microtiter; Mycoplasma gallisepticum 29C; read-out: MIC
Procedure: as §2

[27] = system: Pasteurella hemolytica 23C; test: as above; assay type: cell-based; details: broth-dilution microtiter; Pasteurella hemolytica 23C; read-out: MIC
Procedure: as §2

[28] = sc, subcutaneous, read-out: ED50 Subcutaneous
[29] = Staphylococcus epidermidis, EPI1
[30] = agar dilution, Streptococcus pyogenes C203, read-out: MIC
[31] = agar dilution, Streptococcus Group D X66, read-out: MIC
[32] = agar dilution, Haemophilus influenzae C.L., ampicillin-sensitive strain, read-out: MIC
[33] = agar dilution, Staphylococcus epidermidis 222, read-out: MIC
[34] = agar dilution, Streptococcus pneumoniae Park I
[35] = agar dilution, Streptococcus Group D 2041, read-out: MIC
[36] = Staphylococcus epidermidis, 222

Compound	ED50 (Streptococcus pyogenes; [28])	ED50 (Staphylococcus aureus; [28])	ED50 [1, 28]	MIC [3, 29]	MIC [4]	MIC [5]	MIC [6]	MIC [7]	MIC [8, 30]	MIC [9, 31]	MIC [10]	MIC ([11]; Staphylococcus aureus, X400)	MIC [12, 32]	MIC [13, 33]	ED50 (Streptococcus pyogenes; po, read-out: ED50 Oral)	MIC [2, 34]	MIC [6, 35]	MIC [13, 36]	other results
CCC1OC(=O)CC(O)C(C)C(OC2OC(C)C(O)C(N(C)C)C2O)C(CC=O)CC(C)C(=O)C=CC(C)=CC1CN1CCC2(CCCCC2)CC1 (stereo not shown) [Compound 27, 23-deoxy-23-(3-azaspiro[5.5]undecan-3-yl)-OMT]	> 10 mg/kg	3.08 mg/kg	> 10 mg/kg	0.5 mg/L (≈ 0.682 µM)	0.5 mg/L (≈ 0.682 µM)	0.5 mg/L (≈ 0.682 µM)	0.5 mg/L (≈ 0.682 µM)	0.5 mg/L (≈ 0.682 µM)	0.25 mg/L (≈ 0.341 µM)	0.25 mg/L (≈ 0.341 µM)	2 mg/L (≈ 2.73 µM)	0.5 mg/L (≈ 0.682 µM)	2 mg/L (≈ 2.73 µM)	0.25 mg/L (≈ 0.341 µM)	–	–	–	–	MIC ([2]; Streptococcus pneumoniae): 0.06 mg/L (≈ 0.0819 µM)
CCC1OC(=O)CC(O)C(C)C(OC2OC(C)C(O)C(N(C)C)C2O)C(CC=O)CC(C)C(=O)C=CC(C)=CC1CN1C2CCCCC2C2CCCCC21 (stereo not shown) [Compound 25, 23-deoxy-23-(dodecahydro-9H--carbazol-9-yl)-OMT]	7.43 mg/kg	7.69 mg/kg	> 10 mg/kg	–	0.5 mg/L (≈ 0.659 µM)	0.5 mg/L (≈ 0.659 µM)	–	0.5 mg/L (≈ 0.659 µM)	0.25 mg/L (≈ 0.329 µM)	0.5 mg/L (≈ 0.659 µM)	1 mg/L (≈ 1.32 µM)	–	4 mg/L (≈ 5.27 µM)	–	63 mg/kg	0.125 mg/L (≈ 0.165 µM)	0.5 mg/L (≈ 0.659 µM)	0.25 mg/L (≈ 0.329 µM)	ED50 Subcutaneous (Streptococcus pyogenes; subcutaneous): > 10 mg/kg × 2; MIC ([3]; agar dilution, Staphylococcus epidermidis EPI1, read-out: MIC): 0.5 mg/L (≈ 0.659 µM); MIC ([11]; agar dilution, Staphylococcus aureus X400, methicillin-resistant strain, read-out: MIC): 1 mg/L (≈ 1.32 µM); MIC [14]: 0.78 mg/L (≈ 1.03 µM); MIC [15]: 1.56 mg/L (≈ 2.06 µM); MIC [16]: 1.56 mg/L (≈ 2.06 µM); MIC [17]: 50 mg/L (≈ 65.9 µM); MIC [18]: 25 mg/L (≈ 32.9 µM); MIC (Mycoplasma hyorhinis 29E): < 0.048 mg/L; MIC [19]: 50 mg/L (≈ 65.9 µM); MIC [20]: < 0.012 mg/L; MIC [21]: 1.56 mg/L (≈ 2.06 µM); MIC (Mycoplasma synoviae 40A): < 0.048 mg/L; MIC [22]: 1.56 mg/L (≈ 2.06 µM); MIC (Streptococcus sp. 19F): < 0.048 mg/L; MIC [23]: 1.56 mg/L (≈ 2.06 µM); MIC [24]: 3.12 mg/L (≈ 4.11 µM); MIC [25]: 1.56 mg/L (≈ 2.06 µM); MIC [26]: 0.097 mg/L (≈ 0.128 µM); MIC [27]: 1.56 mg/L (≈ 2.06 µM)
CCC1OC(=O)CC(O)C(C)C(OC2OC(C)C(O)C(N(C)C)C2O)C(CC=O)CC(C)C(=O)C=CC(C)=CC1CN1CC2CC=CCC2C1 (stereo not shown) [Compound 37]	–	2.74 mg/kg	1.66 mg/kg	0.25 mg/L (≈ 0.356 µM)	0.25 mg/L (≈ 0.356 µM)	0.25 mg/L (≈ 0.356 µM)	–	0.25 mg/L (≈ 0.356 µM)	–	0.125 mg/L (≈ 0.178 µM)	1 mg/L (≈ 1.42 µM)	0.25 mg/L (≈ 0.356 µM)	0.5 mg/L (≈ 0.711 µM)	–	87 mg/kg	0.125 mg/L (≈ 0.178 µM)	0.25 mg/L (≈ 0.356 µM)	0.06 mg/L (≈ 0.0854 µM)	ED50 (Staphylococcus aureus; po, read-out: ED50 Oral): 85 mg/kg; ED50 Subcutaneous (Staphylococcus aureus; subcutaneous): 3.92 mg/kg × 2 and 3.42 mg/kg × 2; ED50 ([1]; po, read-out: ED50 Oral): 87 mg/kg; ED50 Subcutaneous ([1]; subcutaneous): 2.97 mg/kg × 2; MIC ([8]; Streptococcus pyogenes, C203): 0.06 mg/L (≈ 0.0854 µM)
CCC1OC(=O)CC(O)C(C)C(OC2OC(C)C(O)C(N(C)C)C2O)C(CC=O)CC(C)C(=O)C=CC(C)=CC1CN(Cc1ccccc1)C1CC2CCC1C2 (stereo not shown) [Compound 6, 23-deoxy-23-[N--benzyl-N--(bicyclo[2.2.1]hept-2-yl)amino]-OMT]	> 10 mg/kg	–	–	0.25 mg/L (≈ 0.32 µM)	0.25 mg/L (≈ 0.32 µM)	0.25 mg/L (≈ 0.32 µM)	0.25 mg/L (≈ 0.32 µM)	0.25 mg/L (≈ 0.32 µM)	0.06 mg/L (≈ 0.0768 µM)	–	0.5 mg/L (≈ 0.64 µM)	0.25 mg/L (≈ 0.32 µM)	–	0.06 mg/L (≈ 0.0768 µM)	> 100 mg/kg	0.125 mg/L (≈ 0.16 µM)	–	–	MIC [9]: 0.25 mg/L (≈ 0.32 µM); MIC ([12]; Haemophilus influenzae): 1 mg/L (≈ 1.28 µM)
